Results as given in patent US20230158036A1, “MEDICAMENT FOR THE TREATMENT OF PAIN” (Shionogi & Co., Ltd., priority 2020, published 2023).
pIC50: −log10 of the molar value.

Legend:
[1] = tested on: patients of interstitial cystitis/bladder pain syndrome; settings: twice daily oral, gradually increased from 50 mg to 300 mg, after 4 weeks; NPRS before administration 6.2; cited from earlier work
[2] = tested on: knee osteoarthritis patients; settings: 300 mg twice daily oral, after 4 weeks; NPRS before administration 6.8; cited from earlier work
[3] = tested on: mouse bone cancer pain model; test: Drug efficacy in mouse bone cancer pain model (NCTC2472 cells in femur, von Frey; Test Example 10); assay type: in vivo; settings: 10 mg/kg oral, two weeks after operation
Source text: (Test Example 10) Assessment of Drug Efficacy in Mouse Bone Cancer Pain Model
Preparation of Mouse Bone Cancer Pain Model
The skin was incised under isoflurane anesthesia, the muscles were torn to expose the left femur, a hole was made in the bone marrow cavity using a 26 G needle, and tumor cells (NCTC2472 cells derived from C3H/HeN mice) were transplanted using a 30 G needle. The hole made in the femoral bone marrow cavity was closed with dental cement, and then the skin was sutured. Mice in sham-operated groups were prepared by administering HBSS instead of tumor cells.
Two weeks after the operation, the effect on tactile allodynia was assessed using von Frey filaments. Two weeks after the operation, for habituation, the mice were placed into a plastic cage on a wire mesh bottom. […] The pain threshold was evaluated for the operated hind limb and defined as a pre-administration pain threshold, and the compound represented by the formula (I) was administered to the animal at 10 mg/kg. […] Pain thresholds were measured for the operated hind limbs after the administration of the test substance, and these were used as post-administration pain thresholds. A percent reversal value for each rat was calculated using the following formula. […]

[4] = target: T1, rat P2X3 receptor (Rattus norvegicus, UniProt P49654); test: Evaluation of rat P2X3 receptor inhibitory activity in the presence of rat serum albumin (Test Example 4); assay type: cell-based
T1 construct: expressed in transfected cells; host or cells: C6BU-1 cells (stably expressing line)
T1 sequence (P49654 1-397): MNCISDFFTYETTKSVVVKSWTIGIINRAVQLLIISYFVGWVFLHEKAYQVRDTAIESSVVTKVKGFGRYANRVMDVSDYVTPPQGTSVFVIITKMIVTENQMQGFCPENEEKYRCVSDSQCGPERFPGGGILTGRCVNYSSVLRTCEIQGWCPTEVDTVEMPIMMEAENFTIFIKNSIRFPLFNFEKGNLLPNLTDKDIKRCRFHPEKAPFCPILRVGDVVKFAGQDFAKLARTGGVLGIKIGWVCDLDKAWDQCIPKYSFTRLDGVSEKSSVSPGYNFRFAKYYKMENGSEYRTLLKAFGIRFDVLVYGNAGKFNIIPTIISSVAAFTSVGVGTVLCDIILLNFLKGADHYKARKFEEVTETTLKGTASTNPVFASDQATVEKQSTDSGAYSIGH
Source text: (Test Example 4) Evaluation of Rat P2X3 Receptor Inhibitory Activity in the Presence of Rat Serum Albumin (RSA)

[5] = tested on: rat knee osteoarthritis model; test: Drug efficacy in knee osteoarthritis pain model (MIA, hind limb load distribution; Test Example 7); assay type: in vivo; settings: 10 mg/kg oral, 3 hours after administration
Protocol: (Test Example 7) Assessment of Drug Efficacy in Knee Osteoarthritis Pain Model
Preparation of Rat Knee Osteoarthritis Model
Under isoflurane anesthesia, a knee joint on one side was shaved, and a monoiode sodium acetate (MIA) solution (saline solution, up to 5 mg/50 μL/rat) was intraarticularly administered.
Two weeks after the MIA administration, the analgesic effect of the compound represented by Formula (I) was evaluated. This test was based on a system for measuring a load distribution applied to hind limbs of a rat, and a ratio of load differences between left and right hind limbs was used as a pain threshold. On the day of the test, the pain threshold before the administration of the compound represented by Formula (I) was measured, and then after the administration of the test substance, the pain threshold was measured. […] Pain thresholds were measured for the hind limbs at 3 hours after the administration of the test substance, and these were used as post-administration pain thresholds. The load difference was measured up to three times, and the average value thereof was used as the pain threshold.
A percent reversal value for each rat was calculated using the following formula. […]

[6] = tested on: mouse bladder pain model; test: Drug efficacy in cystitis pain model (cyclophosphamide, automatic von Frey; Test Example 9); assay type: in vivo; settings: 3 mg/kg oral, 1 hour after administration
Protocol: (Test Example 9) Assessment of Drug Efficacy in Cystitis Pain Model
Preparation of Mouse Bladder Pain Model
Cyclophosphamide was dissolved in physiological saline or the like, and the solution was intraperitoneally administered to mice. Cyclophosphamide was administered at 150 mg/kg once daily consecutively for four days. As a control, mice to which saline was administered were also prepared.
The analgesic effect of the compound represented by Formula (I) was evaluated the day after the final administration of cyclophosphamide. In this test, mechanical stimulation by an automatic von Frey device was applied to the periphery of the lower abdomen while holding the mouse, and with respect to the resulting escape behavior defined as pain-like behavior, the pain threshold was determined. On the day of the test, the pain threshold before the administration (pre-administration pain threshold) of the compound represented by Formula (I) was measured, and then after the administration of the test substance, the pain threshold was measured. […] Pain thresholds were measured at 1 hour after the administration of the test substance, and these were used as post-administration pain thresholds. A percent reversal value for each rat was calculated using the following formula. […]

[7] = tested on: acetic acid-induced urination disorder model; test: Drug efficacy in acetic acid-induced urination disorder model (Test Example 11); assay type: in vivo; settings: rat, 3 mg/kg oral
Protocol: (Test Example 11) Assessment of Drug Efficacy in Acetic Acid-Induced Urination Disorder Model
Preparation of acetic acid-induced urination disorder model
A catheter was placed in a rat bladder under isoflurane anesthesia. After 2 days from the surgery for placing the catheter, 0.3% acetic acid was administered at 4 mL/hr over 30 minutes to induce cystitis. In this model, the amount of urine per urinating action and the voiding interval decreased.
On the day after acetic acid was administered, the amount of urine per urinating action and the voiding interval before drug administration were evaluated. The compound represented by Formula (I) was homogenized with mortar and pestle and suspended in 0.5% Methyl Cellulose to prepare a suspension, and it was orally administered at 0.1 mg/kg, 0.75 mg/kg, or 3 mg/kg to the rats using a syringe attached with a sonde. The amount of urine per urinating action and the voiding interval during a period from 30 minutes to 150 minutes after administration were measured. The value before administration for each individual was assumed to be 100%, and the change rate after administration was calculated.
Rate of change in amount of voided urine per urinating action=(amount of urine per urinating action after drug treatment of cystitis rat[…]amount of voided urine per urinating action before drug treatment of cystitis rat)×100
Rate of change in voiding interval=(voiding interval after drug treatment of cystitis rat[…]voiding interval before drug treatment of cystitis rat)×100

[8] = tested on: rat diabetic neuropathic pain model; test: Drug efficacy in diabetic neuropathic pain model (STZ, Randall-Selitto; Test Example 6); assay type: in vivo; settings: 10 mg/kg oral, 3 hours after administration
Protocol: (Test Example 6) Assessment of Drug Efficacy in Diabetic Neuropathic Pain Model
Preparation of Rat Diabetic Neuropathic Pain Model
To overnight fasted rats, […] of streptozotocin (STZ) was intravenously administered to prepare a diabetes model. As a control, rats to which saline was administered were also prepared.
(§1) Two weeks after the administration of STZ, the analgesic effect of the compound represented by Formula (I) was evaluated by the Randall-Selitto method. […] On the day of the test, the pain threshold before the administration of the compound represented by Formula (I) was measured, and then after the administration of the test substance, the pain threshold was measured. The compound represented by Formula (I) was homogenized with mortar and pestle and suspended in 0.5% Methyl Cellulose to prepare a suspension, and it was orally administered at 10 mg/kg to the animals using a syringe attached with a sonde. Pain thresholds were measured for the hind limbs at 3 hours after the administration of the test substance, and these were used as post-administration pain thresholds. A percent reversal value for each rat was calculated using the following formula. The analgesic effects of the compound were compared.
% Reversal value=(post-administration pain threshold−pre-administration pain threshold)/(pain threshold of saline-administered rat−pre-administration pain threshold)×100

[9] = tested on: partial sciatic nerve ligation model in rats; test: Drug efficacy in Seltzer model (partial sciatic nerve ligation, von Frey tactile allodynia; Test Example 5); assay type: in vivo; settings: rat, 10 mg/kg oral, 3 hours after administration, two weeks after operation
Source text: (Test Example 5) Assessment of Drug Efficacy in Seltzer Model
Partial Sciatic Nerve Ligation Model in Rats
Each rat was anesthetized with isoflurane and the hair of the left thigh was shaved. An incision was made in the skin just below the hip bone. The muscle was bluntly dissected to expose the sciatic nerve. ⅓ to ½ of the sciatic nerve was strongly ligated with a thread, and the muscle and the skin were sutured. This is referred to as a nerve ligated side. The right thigh underwent an identical procedure with the left hind limb except for the ligation of the sciatic nerve. This is referred to as a sham operated side.
Two weeks after the operation, the effect on tactile allodynia was assessed using von Frey filaments. Two weeks after the operation, for habituation, the rats were placed into a plastic cage on a wire mesh bottom. […] Pain thresholds were measured for the left and right hind limbs and these were used as pre-treatment pain thresholds. […] Pain thresholds were measured for the right and left hind limbs at 3 hours after the drug administration, and these were used as post-treatment pain thresholds. A percent reversal value for each rat was calculated using the following formula. […]

[10] = tested on: rat inflammatory pain model; test: Drug efficacy in inflammatory pain model (FCA, Randall-Selitto; Test Example 8); assay type: in vivo; settings: 10 mg/kg oral, 1 hour after administration
Protocol: (Test Example 8) Assessment of Drug Efficacy in Inflammatory Pain Model
Preparation of Rat Inflammatory Pain Model
Under isoflurane anesthesia, FCA (12.5-100 μg) was subcutaneously injected into the hind limb of a rat to prepare an inflammatory pain model.
as §1, with “FCA,” for “STZ,”, “1 hour” for “3 hours”
% Reversal value=(post-administration pain threshold−pre-administration pain threshold)/(pain threshold of hind limb on FCA-non-administered side−pre-administration pain threshold)×100

[11] = 30 to 150 minutes after administration, value before administration = 100%

Row | Compound | Numeric pain rating scale (NPRS) after administration [1] | Numeric pain rating scale (NPRS) after administration [2] | Percent reversal value (pain threshold, von Frey) [3] | pIC50 [4] | Percent reversal value (load difference between left and right hind limbs) [5] | Percent reversal value (lower abdomen pain threshold, automatic von Frey) [6] | Rate of change in amount of voided urine per urinating action [7, 11] | Rate of change in voiding interval [7, 11] | Effect on voiding interval and amount of voided urine (FIGS. 1 and 2), in words ([7]; p<0.05 vs vehicle (Dunnett)) | Percent reversal value (pain threshold, Randall-Selitto) [8] | Percent reversal value (pain threshold, von Frey) [9] | Percent reversal value (pain threshold, Randall-Selitto) [10]
1 | COc1cc(C(C)C)c(Oc2cnc(N)nc2N)cc1S(N)(=O)=O [Gefapixant] | 3.3 | 4.9 |  |  |  |  |  |  |  |  |  | 
2 | C[C@@H](Cn1c(=O)[nH]/c(=N\c2ccc(Oc3ccccn3)cc2)n(Cc2ccc(Cl)cc2)c1=O)C(=O)O [compound represented by Formula (I), (2S)-3-(3-[(4-chlorophenyl)methyl]-2,6-dioxo-4-([4-(pyridin-2-yloxy)phenyl]amino)-3,6-dihydro-1,3,5-triazin-1(2H)-yl)-2-methyl-propanoic acid] |  |  | 55% | 8.00 | 51% | 46% | 208.4% | 219.0% | significant improving effect | 55% | 65% | 58%
